*1 amine or outer side, *2 acyl side, *3 side chain or, on linkers, in order; H or OH if unused. Where a SMILES comes first, the peptide text is derived from it. [ ]: non-standard residue; d: D form. The star is where a group is joined. ξ: configuration not given here. X1 = CC(=O)NC1C(O[C@@H]2OC(CO)[C@H](O)C(O)C2O)[C@@H](O)C(CO)O[C@@H]1*; X4 = CC1(C)OC[C@@H](C(=O)[*:2])N1[*:1]; X3 = O=C([C@@H]1CC(O)CN1[*:1])[*:2]; Thr(3ξ) = CC(O)[C@H](N)C(=O)O; ξY = NC(Cc1ccc(O)cc1)C(=O)O; NMeA = CN[C@@H](C)C(=O)O; ξI = CCC(C)C(N)C(=O)O; ξL = CC(C)CC(N)C(=O)O; ξV = CC(C)C(N)C(=O)O; ξA = CC(N)C(=O)O
Tested on: primary normal human bladder epithelial cells
Test: 3H-thymidine incorporation (antiproliferative activity) in primary normal bladder epithelial cells
Type: cell-based
Conditions: for % of activity: relative to 1 (as-APF) run on the same plate, from IC50, inactive = no significant activity at <25 μM
Experimental: Cell Culture. Cystoscopy was performed under general anesthesia, and 4-mm^2 pieces of transitional epithelium with submucosal bladder tissue were obtained for the growth of primary bladder epithelial cells, as previously described (Keay et al., 1996; 2004). Primary normal bladder epithelial cells were propagated in DMEM-F12 (Media-Tech, Herndon Va.) with 10% heat-inactivated fetal bovine serum (FBS), 1% antibiotic/antimycotic solution, 1% L-glutamine, 0.25 units/mL insulin (all from Sigma, St. Louis, Mo.), and 5 ng/mL hEGF (R&D Systems, Minneapolis, Minn.) at 37° C. in a 5% CO2 atmosphere and characterized by binding of AE-1/AE-3 pancytokeratin antibodies (Signet, Dedham, Mass.).
^3H-Thymidine Incorporation. Cell proliferation was measured by ^3H-thymidine incorporation into explanted normal human bladder epithelial cells, plating 1.5×10^4 cells/well onto a 96 well cell culture plate (VWR 29442-054), in 150 ul/well MEM containing 10% heat inactivated FBS, 1% antibiotic/antimycotic solution, and 1% L-glutamine (all from Sigma), resulting in a doubling time of 48-72 hours, as previously described (Keay et al., 1996; 2004). Each purified lyophilized synthetic APF congener was resuspended in acetonitrile/distilled water (1:1), and applied to the cells in serum-free MEM (containing only L-glutamine and antibiotics/antimycotics); cell controls received acetonitrile/distilled water diluted in serum-free MEM alone. Cells were then incubated at 37° C. in a 5% CO2 atmosphere for 48 hours. The cell contents harvested and methanol-fixed onto glass fiber filter paper, and the amount of radioactivity incorporated determined. Significant inhibition of ^3H-thymidine incorporation was defined as a mean decrease in counts per minute of greater than 2 standard deviations from the mean of control cells for each plate. Inhibition of cell proliferation was determined from a semi-log plot of dose-response for each APF derivative; IC50 was determined as the concentration of each derivative that caused a mean 50% inhibition of thymidine incorporation as compared to the mean of untreated cell controls.
Statistical Analysis. The thymidine incorporation (APF biological activity) assay was performed in triplicate on at least two separate runs, with 1 run simultaneously in triplicate on the same plate. The significance of the difference between mean values for each congener vs. mean values for compound 1 was determined by an analysis of variance.

Row | Structure (SMILES) | antiproliferative activity compared with as-APF (1), in words | % of activity | activity (as-APF8 analogues Galβ1-3GalNAcα-O-TVPAA-R-R-R, Table 7)
1 | CCC(C)C(NC(=O)[C@H](C)NC(=O)C(C)NC(=O)[C@@H]1CCCN1C(=O)C(NC(=O)[C@@H](N)C(C)O[C@H]1OC(CO)[C@H](O)C(O[C@@H]2OC(CO)[C@H](O)C(O)C2O)C1NC(C)=O)C(C)C)C(=O)N[C@H](C(=O)NC(C(=O)N[C@@H](C)C(=O)O)C(C)CC)C(C)C (stereo partly shown) [Derivative 28] (H-[Thr(3ξ)](X1)[ξV]P[ξA]A[ξI]V[ξI]A-OH) | complete inactivation of antiproliferative activity | inactive | 
2 | CC(=O)NC1C(O[C@@H]2OC(CO)[C@H](O)C(O)C2O)[C@@H](O)C(CO)O[C@@H]1OC(C)[C@H](N)C(=O)NC(C(=O)N1[C@H](C(=O)NC(C)C(=O)N[C@@H](C)C(=O)NC(C(=O)N[C@H](C(=O)NC(C(=O)N[C@@H](C)C(=O)O)C(C)C)C(C)C)C(C)C)COC1(C)C)C(C)C (stereo partly shown) [Derivative 9] (H-[Thr(3ξ)](X1)[ξV][X4][ξA]A[ξV]V[ξV]A-OH) | completely abolished activity | inactive | 
3 | CC(=O)NC1C(O[C@@H]2OC(CO)[C@H](O)C(O)C2O)[C@@H](O)C(CO)O[C@@H]1OC(C)[C@H](N)C(=O)NC(C(=O)N1CCC[C@H]1C(=O)NC(C)C(=O)N[C@@H](C)C(=O)NC(C(=O)N[C@H](C(=O)NC(C(=O)O)C(C)C)C(C)C)C(C)C)C(C)C (stereo partly shown) [Derivative 18, Galβ1-3GalNAcα-O-TVPAAVVV] (H-[Thr(3ξ)](X1)[ξV]P[ξA]A[ξV]V[ξV]-OH) | full activity | 100% | 100%
4 | CC(=O)NC1C(O[C@@H]2OC(CO)[C@H](O)C(O)C2O)[C@@H](O)C(CO)O[C@@H]1OC(C)[C@H](N)C(=O)NC(C(=O)N1CCC[C@H]1C(=O)NC(C)C(=O)N[C@H](C(=O)NC(C(=O)N[C@H](C(=O)NC(C(=O)N[C@@H](C)C(=O)O)C(C)C)C(C)C)C(C)C)C(C)C)C(C)C (stereo partly shown) [Derivative 22] (H-[Thr(3ξ)](X1)[ξV]P[ξA]V[ξV]V[ξV]A-OH) | loss of most or all biological activity | inactive | 
5 | CC(=O)NC1C(O[C@@H]2OC(CO)[C@H](O)C(O)C2O)[C@@H](O)C(CO)O[C@@H]1OC(C)[C@H](N)C(=O)NC(C(=O)N1CCC[C@H]1C(=O)NC(C)C(=O)N[C@@H](C)C(=O)NC(C(=O)N[C@H](C(=O)O)C(C)C)C(C)C)C(C)C (stereo partly shown) [Derivative 19, Galβ1-3GalNAcα-O-TVPAAVV] (H-[Thr(3ξ)](X1)[ξV]P[ξA]A[ξV]V-OH) | completely inactive | inactive | 
6 | CC(=O)NC1C(O[C@@H]2OC(CO)[C@H](O)C(O)C2O)[C@@H](O)C(CO)O[C@@H]1OC(C)[C@H](N)C(=O)NC(C(=O)N(C)[C@@H](C)C(=O)NC(C)C(=O)N[C@@H](C)C(=O)NC(C(=O)N[C@H](C(=O)NC(C(=O)N[C@@H](C)C(=O)O)C(C)C)C(C)C)C(C)C)C(C)C (stereo partly shown) [Derivative 14] (H-[Thr(3ξ)](X1)[ξV][NMeA][ξA]A[ξV]V[ξV]A-OH) | 4 orders of magnitude decrease | 0.05% | 
7 | CC(=O)NC1C(O[C@@H]2OC(CO)[C@H](O)C(O)C2O)[C@@H](O)C(CO)O[C@@H]1OC(C)[C@H](N)C(=O)NC(C(=O)N1CCC[C@H]1C(=O)NC(C)C(=O)N[C@@H](C)C(=O)NC(C(=O)N[C@H](C(=O)NC(C(=O)N[C@@H](CC(C)C)C(=O)O)C(C)C)C(C)C)C(C)C)C(C)C (stereo partly drawn) [Derivative 21] (H-[Thr(3ξ)](X1)[ξV]P[ξA]A[ξV]V[ξV]L-OH) | loss of most or all biological activity | 0.01% | 
8 | CC(=O)NC1C(O[C@@H]2OC(CO)[C@H](O)C(O)C2O)[C@@H](O)C(CO)O[C@@H]1OC(C)[C@H](N)C(=O)NC(C(=O)N1CCC[C@H]1C(=O)NC(C)C(=O)N[C@@H](C)C(=O)O)C(C)C (stereo partly shown) [Derivative 17] (H-[Thr(3ξ)](X1)[ξV]P[ξA]A-OH) | completely inactive | inactive | 
9 | CC(=O)NC1C(O[C@@H]2OC(CO)[C@H](O)C(O)C2O)[C@@H](O)C(CO)O[C@@H]1OC(C)[C@H](NC(=O)C(N)Cc1ccc(O)cc1)C(=O)NC(CC(C)C)C(=O)N1CCC[C@H]1C(=O)NC(C)C(=O)N[C@@H](C)C(=O)NC(C(=O)N[C@H](C(=O)NC(C(=O)N[C@@H](C)C(=O)O)C(C)C)C(C)C)C(C)C (stereo partly shown) [Derivative 6] (H-[ξY][Thr(3ξ)](X1)[ξL]P[ξA]A[ξV]V[ξV]A-OH) | approximately 2 orders of magnitude loss of potency | 1% | 
10 | CC(=O)NC1C(O[C@@H]2OC(CO)[C@H](O)C(O)C2O)[C@@H](O)C(CO)O[C@@H]1OC(C)[C@H](N)C(=O)NC(C(=O)N1CCC[C@H]1C(=O)NC(C)C(=O)N[C@@H](C)C(=O)NC(C)C(=O)N[C@@H](C)C(=O)NC(C)C(=O)N[C@@H](C)C(=O)O)C(C)C (stereo partly shown) [Derivative 25] (H-[Thr(3ξ)](X1)[ξV]P[ξA]A[ξA]A[ξA]A-OH) | decreased antiproliferative activity | 1% | 
11 | CC(=O)NC1C(O[C@@H]2OC(CO)[C@H](O)C(O)C2O)[C@@H](O)C(CO)O[C@@H]1OC(C)[C@H](N)C(=O)NC(CC(C)C)C(=O)N1CCC[C@H]1C(=O)NC(C)C(=O)N[C@@H](C)C(=O)NC(C(=O)N[C@H](C(=O)NC(C(=O)N[C@@H](C)C(=O)O)C(C)C)C(C)C)C(C)C (stereo partly shown) [Derivative 4] (H-[Thr(3ξ)](X1)[ξL]P[ξA]A[ξV]V[ξV]A-OH) | inactivation | inactive | 
12 | CC(=O)NC1C(O[C@@H]2OC(CO)[C@H](O)C(O)C2O)[C@@H](O)C(CO)O[C@@H]1OC(C)[C@H](N)C(=O)NC(C(=O)N1CCC[C@H]1C(=O)NC(C)C(=O)N[C@@H](C)C(=O)NC(C(=O)N[C@H](C(=O)NC(C(=O)N[C@@H](C)C(=O)O)C(C)C)C(C)C)C(C)C)C(C)C (stereo partly shown) [Derivative 36] | complete inactivity | inactive | 
13 | CC(=O)NC1C(O[C@@H]2OC(CO)[C@H](O)C(O)C2O)[C@@H](O)C(CO)O[C@@H]1OC(C)[C@H](N)C(=O)NC(Cc1ccc(O)cc1)C(=O)N1CCC[C@H]1C(=O)NC(C)C(=O)N[C@@H](C)C(=O)NC(C(=O)N[C@H](C(=O)NC(C(=O)N[C@@H](C)C(=O)O)C(C)C)C(C)C)C(C)C (stereo partly shown) [Derivative 7] (H-[Thr(3ξ)](X1)[ξY]P[ξA]A[ξV]V[ξV]A-OH) | complete inactivation | inactive | 
14 | CC(=O)NC1C(O[C@@H]2OC(CO)[C@H](O)C(O)C2O)[C@@H](O)C(CO)O[C@@H]1OC(C)[C@H](N)C(=O)NC(C(=O)N1CC(O)C[C@H]1C(=O)NC(C)C(=O)N[C@@H](C)C(=O)NC(C(=O)N[C@H](C(=O)NC(C(=O)N[C@@H](C)C(=O)O)C(C)C)C(C)C)C(C)C)C(C)C (stereo partly shown) [Derivative 12] (H-[Thr(3ξ)](X1)[ξV][X3][ξA]A[ξV]V[ξV]A-OH) | 2-3 orders of magnitude decrease | 0.3% | 
15 | CC(=O)NC1C(O[C@@H]2OC(CO)[C@H](O)C(O)C2O)[C@@H](O)C(CO)O[C@@H]1OC(C)[C@H](N)C(=O)NC(C(=O)N1CCC[C@H]1C(=O)NC(C)C(=O)NCC(=O)NC(C(=O)N[C@H](C(=O)NC(C(=O)NCC(=O)O)C(C)C)C(C)C)C(C)C)C(C)C (stereo partly shown) [Derivative 24] (H-[Thr(3ξ)](X1)[ξV]P[ξA]G[ξV]V[ξV]G-OH) | complete inactivation | inactive | 
16 | CC(=O)NC1C(O[C@@H]2OC(CO)[C@H](O)C(O)C2O)[C@@H](O)C(CO)O[C@@H]1OC(C)[C@H](N)C(=O)NC(C(=O)N1CCC[C@H]1C(=O)NCCCCCCCCCCCC(=O)O)C(C)C (stereo partly shown) [Derivative 16] | completely inactive | inactive | 
17 | CC(=O)NC1C(O[C@@H]2OC(CO)[C@H](O)C(O)C2O)[C@@H](O)C(CO)O[C@@H]1OC(C)[C@H](N)C(=O)NC(C(=O)N[C@@H](C)C(=O)NC(C)C(=O)N[C@@H](C)C(=O)NC(C(=O)N[C@H](C(=O)NC(C(=O)N[C@@H](C)C(=O)O)C(C)C)C(C)C)C(C)C)C(C)C (stereo partly shown) [Derivative 11] (H-[Thr(3ξ)](X1)[ξV]A[ξA]A[ξV]V[ξV]A-OH) | 2-3 orders of magnitude decrease | 0.3% | 
18 | CC(=O)NC1C(O[C@@H]2OC(CO)[C@H](O)C(O)C2O)[C@@H](O)C(CO)O[C@@H]1OC(C)[C@H](N)C(=O)NC(C(=O)N1CCC[C@H]1C(=O)NC(C)C(=O)N[C@@H](C)C(=O)NC(C(=O)N[C@H](C(=O)NC(C)C(=O)N[C@H](C(=O)O)C(C)C)C(C)C)C(C)C)C(C)C (stereo partly shown) [Derivative 20] (H-[Thr(3ξ)](X1)[ξV]P[ξA]A[ξV]V[ξA]V-OH) | loss of most or all biological activity | inactive | 

— patent US8912146B2, “Derivatives of APF and methods of use” (University of Maryland, Baltimore, priority 2008, dated 2014)
